Results published in BindingDB's records for doi:10.7270/Q25H7DQC (Nmmlsc, 2009).

molecular target: Ras-related protein Rab-2A (Canis lupus familiaris, UniProt P61105); test: wildtype Rab2 GTP-binding inhibitors, SAR follow-up, biochemical, multiplex dose response, Bodipy-FL-GTP, flow cytometry (AID 2033); conditions: not given
Sequence (P61105 whole entry): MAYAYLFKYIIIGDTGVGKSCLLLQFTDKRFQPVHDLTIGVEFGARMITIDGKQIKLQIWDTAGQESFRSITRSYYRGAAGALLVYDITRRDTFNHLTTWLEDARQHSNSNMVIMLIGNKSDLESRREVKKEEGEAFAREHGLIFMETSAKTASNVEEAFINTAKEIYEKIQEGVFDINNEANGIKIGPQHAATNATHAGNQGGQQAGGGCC

Structure (SMILES)	EC50 [µM]
Cc1ccc(C)c(N2CCN(C(=O)CCc3nc(-c4ccccc4C(F)(F)F)no3)CC2)c1	> 30
Cc1ccc(C)c(N2CCN(C(=O)CCc3nc(-c4ccc(C(F)(F)F)cc4)no3)CC2)c1 [1-[4-(2,5-dimethylphenyl)-1-piperazinyl]-3-[3-[4-(trifluoromethyl)phenyl]-1,2,4-oxadiazol-5-yl]-1-propanone]	> 30
COc1ccc(-c2noc(CC(=O)N3CCN(c4cc(C)ccc4C)CC3)n2)cc1 [1-[4-(2,5-dimethylphenyl)piperazin-1-yl]-2-[3-(4-methoxyphenyl)-1,2,4-oxadiazol-5-yl]ethanone]	> 30
COc1ccc(-c2noc(CCC(=O)N3CCN(c4cccc(C(F)(F)F)c4)CC3)n2)cc1 [1-{3-[3-(4-methoxyphenyl)-1,2,4-oxadiazol-5-yl]propanoyl}-4-[3-(trifluoromethyl)phenyl]piperazine]	> 30
Cc1ccc(C)c(N2CCN(C(=O)CCc3nc(-c4ccccc4Cl)no3)CC2)c1 [3-[3-(2-chlorophenyl)-1,2,4-oxadiazol-5-yl]-1-[4-(2,5-dimethylphenyl)-1-piperazinyl]-1-propanone]	> 30
COc1ccc(-c2noc(CCC(=O)N3CCN(c4ccc(C(F)(F)F)cc4)CC3)n2)cc1 [3-[3-(4-methoxyphenyl)-1,2,4-oxadiazol-5-yl]-1-[4-[4-(trifluoromethyl)phenyl]piperazin-1-yl]propan-1-one]	> 30
Cc1ccc(C)c(N2CCN(C(=O)CCc3nc(-c4cccc(C(F)(F)F)c4)no3)CC2)c1 [KUC103380N]	> 30
COc1ccc(-c2noc(CCC(=O)N3CCN(c4ccc(F)cc4)CC3)n2)cc1 [KUC103398N]	> 30
Cc1ccc(C)c(N2CCN(C(=O)CCc3nc(-c4ccc(N(C)C)cc4)no3)CC2)c1 [KUC103409N]	> 30
COc1ccccc1-c1noc(CCC(=O)N2CCN(c3cc(C)ccc3C)CC2)n1 [UNM-0000306071]	> 30
COc1ccc(-c2noc(CCC(=O)N3CCN(c4cccc(C)c4)CC3)n2)cc1 [UNM-0000306125]	> 30
COc1ccc(-c2cc(CCC(=O)N3CCN(c4cc(C)ccc4C)CC3)[nH]n2)cc1 [UNM-0000306150]	> 30

Second part, the molecule after the results:

EC50 [µM]	Structure (SMILES)
> 30	COc1ccc(-c2noc(CCCCC(=O)N3CCN(c4cc(C)ccc4C)CC3)n2)cc1 [1-[4-(2,5-dimethylphenyl)-1-piperazinyl]-5-[3-(4-methoxyphenyl)-1,2,4-oxadiazol-5-yl]-1-pentanone]
> 30	COc1ccc(-c2coc(CCC(=O)N3CCN(c4cc(C)ccc4C)CC3)n2)cc1 [1-[4-(2,5-dimethylphenyl)piperazin-1-yl]-3-[4-(4-methoxyphenyl)-1,3-oxazol-2-yl]propan-1-one]
> 30	COc1ccc(-c2noc(CCC(=O)N3CCN(c4cccc(Br)c4)CC3)n2)cc1 [1-[4-(3-bromophenyl)-1-piperazinyl]-3-[3-(4-methoxyphenyl)-1,2,4-oxadiazol-5-yl]-1-propanone]
> 30	COc1ccc(-c2noc(CCC(=O)N3CCN(c4cccc(F)c4)CC3)n2)cc1 [1-[4-(3-fluorophenyl)piperazin-1-yl]-3-[3-(4-methoxyphenyl)-1,2,4-oxadiazol-5-yl]propan-1-one]
> 30	COc1ccc(-c2noc(CCC(=O)N3CCN(c4ccc(Br)cc4)CC3)n2)cc1 [1-[4-(4-bromophenyl)piperazin-1-yl]-3-[3-(4-methoxyphenyl)-1,2,4-oxadiazol-5-yl]propan-1-one]
> 30	COc1ccc(-c2noc(CCC(=O)N3CCN(c4ccccc4)CC3)n2)cc1 [3-[3-(4-methoxyphenyl)-1,2,4-oxadiazol-5-yl]-1-(4-phenylpiperazin-1-yl)propan-1-one]
> 30	COc1ccc(-c2noc(CCC(=O)N3CCN(c4ccc(OC)cc4)CC3)n2)cc1 [3-[3-(4-methoxyphenyl)-1,2,4-oxadiazol-5-yl]-1-[4-(4-methoxyphenyl)piperazin-1-yl]propan-1-one]
> 30	Cc1ccc(C)c(N2CCN(C(=O)CCc3nc(-c4cccc(F)c4)no3)CC2)c1 [KUC103366N]
> 30	COc1ccc(-c2noc(CCC(=O)N3CCN(c4ccc(Cl)cc4)CC3)n2)cc1 [UNM-0000306121]
> 30	COc1ccc(-c2cccc(CCC(=O)N3CCN(c4cc(C)ccc4C)CC3)c2)cc1 [UNM-0000306127]

same assay, conditions: inactive by the depositor's call

Structure (SMILES)	EC50 [µM]
COc1cccc(-c2noc(CCC(=O)N3CCN(c4cc(C)ccc4C)CC3)n2)c1	3.9
COc1ccc(-c2noc(CCC(=O)N3CCN(c4cccc(C)c4C)CC3)n2)cc1 [1-[4-(2,3-dimethylphenyl)-1-piperazinyl]-3-[3-(4-methoxyphenyl)-1,2,4-oxadiazol-5-yl]-1-propanone]	2.31
Cc1cccc(-c2noc(CCC(=O)N3CCN(c4cc(C)ccc4C)CC3)n2)c1 [1-[4-(2,5-dimethylphenyl)piperazin-1-yl]-3-[3-(3-methylphenyl)-1,2,4-oxadiazol-5-yl]propan-1-one]	1.32
COc1ccc(-c2ccc(CCC(=O)N3CCN(c4cc(C)ccc4C)CC3)[nH]2)cc1 [1-[4-(2,5-dimethylphenyl)piperazin-1-yl]-3-[5-(4-methoxyphenyl)-1H-pyrrol-2-yl]propan-1-one]	5.22
COc1ccc(-c2noc(CCC(=O)N3CCN(c4ccccc4F)CC3)n2)cc1 [1-[4-(2-fluorophenyl)piperazin-1-yl]-3-[3-(4-methoxyphenyl)-1,2,4-oxadiazol-5-yl]propan-1-one]	0.733
Cc1ccc(C)c(N2CCN(C(=O)CCc3nc(-c4ccccc4Br)no3)CC2)c1 [3-[3-(2-bromophenyl)-1,2,4-oxadiazol-5-yl]-1-[4-(2,5-dimethylphenyl)-1-piperazinyl]-1-propanone]	3.13
COc1ccc(-c2noc(CCC(=O)N3CCN(c4ccc(C)cc4)CC3)n2)cc1 [3-[3-(4-methoxyphenyl)-1,2,4-oxadiazol-5-yl]-1-[4-(4-methylphenyl)piperazin-1-yl]propan-1-one]	0.708
COc1ccc(-c2noc(CCCC(=O)N3CCN(c4cc(C)ccc4C)CC3)n2)cc1 [KUC103353N]	16.2
Cc1ccc(C)c(N2CCN(C(=O)CCc3nc(-c4ccc(F)cc4)no3)CC2)c1 [KUC103364N]	0.335
Cc1ccc(C)c(N2CCN(C(=O)CCc3nc(-c4cccc(Br)c4)no3)CC2)c1 [KUC103367N]	3.66
COc1ccc(-c2noc(CCC(=O)N3CCN(c4ccccc4Br)CC3)n2)cc1 [KUC103370N]	3.22
COc1ccc(-c2noc(CCC(=O)N3CCC(c4cc(C)ccc4C)CC3)n2)cc1 [KUC103432N]	2.51
COc1ccc(-c2ccc(CCC(=O)N3CCN(c4cc(C)ccc4C)CC3)o2)cc1 [KUC103447N]	15.1
Cc1ccc(C)c(N2CCN(C(=O)CCc3nc(-c4ccccc4)no3)CC2)c1 [UNM-0000306070]	0.841
COc1ccc(-c2noc(CCC(=O)N3CCN(c4ccccc4C(F)(F)F)CC3)n2)cc1 [UNM-0000306082]	2.1
Cc1ccc(C)c(N2CCN(C(=O)CCc3nc(-c4cccc(Cl)c4)no3)CC2)c1 [UNM-0000306086]	2.9

Next, values leading:

EC50 [µM]	Structure (SMILES)
1.67	Cc1ccc(C)c(N2CCN(C(=O)CCc3nc(-c4ccccc4C)no3)CC2)c1
8.53	COc1ccc(-c2noc(CCC(=O)N3CCN(c4cccc(Cl)c4)CC3)n2)cc1
2.54	COc1ccc(-c2noc(CCC(=O)N3CCN(c4ccccc4C)CC3)n2)cc1
2.48	COc1ccc(-c2ccc(CCC(=O)N3CCN(c4cc(C)ccc4C)CC3)s2)cc1
2.49	COc1ccc(-c2noc(CCC(=O)N3CCN(c4cc(C)ccc4C)CC3)n2)cc1 [1-[4-(2,5-dimethylphenyl)-1-piperazinyl]-3-[3-(4-methoxyphenyl)-1,2,4-oxadiazol-5-yl]-1-propanone]
4.14	Cc1ccc(-c2noc(CCC(=O)N3CCN(c4cc(C)ccc4C)CC3)n2)cc1 [1-[4-(2,5-dimethylphenyl)-1-piperazinyl]-3-[3-(4-methylphenyl)-1,2,4-oxadiazol-5-yl]-1-propanone]
2.54	COc1ccc(-c2cc(CCC(=O)N3CCN(c4cc(C)ccc4C)CC3)on2)cc1 [1-[4-(2,5-dimethylphenyl)piperazin-1-yl]-3-[3-(4-methoxyphenyl)-1,2-oxazol-5-yl]propan-1-one]
2.39	COc1ccc(-c2noc(CCC(=O)N3CCN(c4ccccc4Cl)CC3)n2)cc1 [1-[4-(2-chlorophenyl)piperazin-1-yl]-3-[3-(4-methoxyphenyl)-1,2,4-oxadiazol-5-yl]propan-1-one]
1.32	COc1ccc(-c2noc(CCC(=O)N3CCN(c4ccccc4OC)CC3)n2)cc1 [3-[3-(4-methoxyphenyl)-1,2,4-oxadiazol-5-yl]-1-[4-(2-methoxyphenyl)-1-piperazinyl]-1-propanone]
6.46	COc1ccc(-c2noc(CCC(=O)N3CCN(c4cccc(OC)c4)CC3)n2)cc1 [KUC103349N]
0.908	Cc1ccc(C)c(N2CCN(C(=O)CCc3nc(-c4ccccc4F)no3)CC2)c1 [KUC103401N]
2.94	Cc1ccc(C)c(N2CCN(C(=O)CCc3nc(-c4ccc(Br)cc4)no3)CC2)c1 [UNM-0000306072]
1.79	Cc1ccc(C)c(N2CCN(C(=O)CCc3nc(-c4ccc(Cl)cc4)no3)CC2)c1 [UNM-0000306083]
